Data as given in PMC10983001, “Development of Cytotoxic GW7604-Zeise’s Salt Conjugates as Multitarget Compounds with Selectivity for Estrogen Receptor- Positive Tumor Cells” (Journal of Medicinal Chemistry, 2024).
Read-outs that look alike come from different tables or passages of the source.

How the values were obtained:
MCF-7 cells [1] = experiment: MTT assay of metabolic activity, MCF-7; format: cell-based, human; conditions: 72 h, MTT, read-out: IC50 MCF-7
Method: (§1) The GW7604-Alk-PtCl3 complexes (with exclusion of GW7604-Prop-PtCl3) were investigated for cytotoxic effects in SKBr3 (ER-negative, COX-2-positive, Figure 6), MCF-7 (ERα-positive, COX-negative, Figure 6), and noncancerous TSA-201 (human embryonal kidney) cells at concentrations of 10–30 μM using an established MTT (3-(4,5-dimethylthiazol-2-yl)-2,5-diphenyltetrazolium bromide) assay.[60],[69]
(§2) After incubation for 72 h, the amounts of surviving, metabolically active cells were quantified based on their ability to transform the water-soluble yellow dye MTT to a purple formazan, which can be analyzed by UV–vis spectroscopy.
(§3) The exponentially growing cells were seeded at a density of 1750 (MCF-7), 2000 (SKBr3), and 1250 (TSA-201) cells/well into clear flat-bottom 96-well plates in triplicate. Following 24 h of incubation at 37 °C in a humidified atmosphere (5% CO2/95% air), the compounds [freshly prepared stock solutions in DMF, diluted with DMEM to the desired concentration (final DMF concentration of 0.1% (v/v))] were added to reach the indicated concentrations. After another 72 h of incubation, the cellular metabolic activity was measured employing an MTT assay. By adding predissolved MTT reagent in PBS at a final concentration of 0.5 mg/mL, the metabolic activity can be determined via an enzymatic conversion to a purple formazan salt. After 3 h, the medium was aspirated, and 200 μL of DMSO was added to dissolve the formed formazan crystals. The absorbance was measured at 570 and 690 nm (turbidity assessment) using an EnSpire plate reader (PerkinElmer, Waltham, MA, USA). Solvent-treated cells without a compound served as the positive control. Metabolic activity was calculated by the following equation [drawing 1]

MCF-7 cells [2] = experiment: Comet assay; format: cell-based, human; conditions: MCF-7, 15 μM, 48 h
Method: The comet assay (Figure 10), however, documents different consequences of DNA binding. […] The picture (Figure 10C) is very similar to that of the solvent control (Figure 10A).
MCF-7 cells were seeded at a density of 1.0 × 10^6 cells into a 25 cm^2 flask, followed by 24 h of incubation in a humidified atmosphere (5% CO2/95% air) at 37 °C. […] Cells were incubated with the compounds for 48 h. The assay was performed according to the manufacturer’s protocol (Comet assay kit, Abcam, Cambridge, UK). Briefly, after lysis and application to the microscopy slides, electrophoresis was run in an alkaline buffer for 20 min at 2 V/cm. Subsequently, slides were washed with pure deionized water and EtOH/water [7/3 (v/v)], and stained with Vista Green DNA Dye. Visualization was carried out by real-time live confocal microscopy using an inverted microscope (Zeiss Observer Z1) in arrangement with a spinning disc confocal system (UltraVIEW VoX).

SKBr3 cells [3] = experiment: Cellular uptake (platinum by HR-CS-AAS), SKBr3; format: cell-based, human; conditions: 8 h
Method: (§4) In order to reach the DNA, the complexes must first pass through the cell membrane and penetrate into the nuclei. Therefore, the cellular uptake kinetics of GW7604-Alk-PtCl3 complexes were studied using the example of GW7604-Pent-PtCl3. This complex and Cisplatin, respectively, were incubated at a concentration of 20 μM with MCF-7 or SKBr3 cells. After various time points [i.e., 0 (3 min), 0.5, 1, 2, 4, and 8 h], cell pellets were prepared, and the platinum content was quantified by high-resolution continuum source atomic absorption spectrometry (HR-CS-AAS).[52]
After thawing of the cell/nuclei pellets, they were resuspended in ultrapure water (Siemens LaboStar, Günzburg, Germany; 300 μL) and lyzed with a sonotrode (Bandelin Sonoplus, Berlin, Germany; parameters 20 s, 9 cycles, 80% power). Graphite furnace (GF) AAS was used to quantify the lysates concerning their content of platinum (λ = 265.9450 nm). For this purpose, a contrAA 700 High-Resolution-Continous Source AAS (Analytik Jena, Jena, Germany) was employed, while atomization took place by electrothermal heating of graphite tubes with an inserted platform (Analytik Jena, Jena, Germany). A time–temperature program reported in the literature[25] was followed with minor adjustments. The liquid samples kept in 0.5 mL polystyrene vials (Gesellschaft für Analysentechnik, Salzwedel, Germany) were injected directly into the pyrolytically coated tubes using an MPE 60 autosampler (Analytik Jena, Jena, Germany). Throughout the measurements, argon (Alphagaz 1, 99.999%, Air Liquide, Düsseldorf, Germany) served as the purge and protective gas. The spectrometer was monitored with the ASpect CS software, version 2.3.1.0 (Analytik Jena, Jena, Germany). For all runs, the mean integrated absorbance was determined after three injections of each standard or sample. Calibration was performed by an appropriate dilution of a solution of Cisplatin (Sigma-Aldrich, Taufkirchen, Germany) obtaining five standards (2–10 μg/L, R^2 ≥ 0.982). Each cell/nuclei lysate was quantified concerning its protein content following the method of Bradford[71] in order to express the uptake as the amount of compound (pmol) in the lysate relative to its protein mass (mg). Therefore, solutions of Albumin fraction V (Carl Roth, Karlsruhe, Germany) diluted with ultrapure water were adduced for the calibration (six standards, 50–300 μg/mL, R^2 ≥ 0.996). […] All standards and lysates were measured in duplicate. After incubating for 5 min at rt, the absorbance (λ = 595 nm) was read on a microplate reader (Tecan Safire 2, Männedorf, Switzerland). […]

nuclei of SKBr3 cells = experiment: Nuclear uptake (platinum by HR-CS-AAS), SKBr3; format: cell-based, human; conditions: SKBr3, 20 μM, 24 h
Method: (§5) Fluorescence in the nuclei is not detectable. Therefore, the nuclei were analyzed for their platinum content using HR-CS-AAS.[25]
(§6) After thawing of the cell/nuclei pellets, they were resuspended in ultrapure water (Siemens LaboStar, Günzburg, Germany; 300 μL) and lyzed with a sonotrode (Bandelin Sonoplus, Berlin, Germany; parameters 20 s, 9 cycles, 80% power). Graphite furnace (GF) AAS was used to quantify the lysates concerning their content of platinum (λ = 265.9450 nm). For this purpose, a contrAA 700 High-Resolution-Continous Source AAS (Analytik Jena, Jena, Germany) was employed, while atomization took place by electrothermal heating of graphite tubes with an inserted platform (Analytik Jena, Jena, Germany). […] The spectrometer was monitored with the ASpect CS software, version 2.3.1.0 (Analytik Jena, Jena, Germany). For all runs, the mean integrated absorbance was determined after three injections of each standard or sample. […] Each cell/nuclei lysate was quantified concerning its protein content following the method of Bradford[71] in order to express the uptake as the amount of compound (pmol) in the lysate relative to its protein mass (mg). […] All standards and lysates were measured in duplicate. After incubating for 5 min at rt, the absorbance (λ = 595 nm) was read on a microplate reader (Tecan Safire 2, Männedorf, Switzerland). […]

nuclei of MCF-7 cells = experiment: Nuclear uptake (platinum by HR-CS-AAS), MCF-7; format: cell-based, human; conditions: MCF-7, 20 μM, 24 h; pmol complex/mg protein
Method: as §5, §6

SKBr3 cells [4] = experiment: MTT assay of metabolic activity, SKBr3; format: cell-based, human; conditions: 72 h; for IC50: MTT
Method: as §1, §2, §3

MCF-7 cells [5] = experiment: Cellular uptake (platinum by HR-CS-AAS), MCF-7; format: cell-based, human; conditions: MCF-7, 20 μM, 8 h
Method: as §4
After thawing of the cell/nuclei pellets, they were resuspended in ultrapure water (Siemens LaboStar, Günzburg, Germany; 300 μL) and lyzed with a sonotrode (Bandelin Sonoplus, Berlin, Germany; parameters 20 s, 9 cycles, 80% power). Graphite furnace (GF) AAS was used to quantify the lysates concerning their content of platinum (λ = 265.9450 nm). For this purpose, a contrAA 700 High-Resolution-Continous Source AAS (Analytik Jena, Jena, Germany) was employed, while atomization took place by electrothermal heating of graphite tubes with an inserted platform (Analytik Jena, Jena, Germany). A time–temperature program reported in the literature[25] was followed with minor adjustments. The liquid samples kept in 0.5 mL polystyrene vials (Gesellschaft für Analysentechnik, Salzwedel, Germany) were injected directly into the pyrolytically coated tubes using an MPE 60 autosampler (Analytik Jena, Jena, Germany). Throughout the measurements, argon (Alphagaz 1, 99.999%, Air Liquide, Düsseldorf, Germany) served as the purge and protective gas. The spectrometer was monitored with the ASpect CS software, version 2.3.1.0 (Analytik Jena, Jena, Germany). For all runs, the mean integrated absorbance was determined after three injections of each standard or sample. Calibration was performed by an appropriate dilution of a solution of Cisplatin (Sigma-Aldrich, Taufkirchen, Germany) obtaining five standards (2–10 μg/L, R^2 ≥ 0.982). Each cell/nuclei lysate was quantified concerning its protein content following the method of Bradford[71] in order to express the uptake as the amount of compound (pmol) in the lysate relative to its protein mass (mg). Therefore, solutions of Albumin fraction V (Carl Roth, Karlsruhe, Germany) diluted with ultrapure water were adduced for the calibration (six standards, 50–300 μg/mL, R^2 ≥ 0.996). A volume of 20 μL of the Albumin standards or the lysates was added to a 96-well plate (Sarstedt, Nürmbrecht, Germany) and supplemented with 200 μL of Bradford’s reagent (Roti-Nanoquant, Carl Roth, Karlsruhe, Germany; diluted 5-fold with ultrapure water). All standards and lysates were measured in duplicate. After incubating for 5 min at rt, the absorbance (λ = 595 nm) was read on a microplate reader (Tecan Safire 2, Männedorf, Switzerland). The cellular/nuclear uptake (pmol complex/mg protein) is given as the mean ± SD of 2 independent experiments.
For cellular uptake studies, 1.0 × 10^6 of MCF-7 and SKBr3 cells in their exponential growing phase were seeded into 25 cm^2 cell culture flasks and incubated for 24 h under a humidified atmosphere (5% CO2/95% air) at 37 °C. Stock solutions of the platinum complexes (GW7604-Pent-PtCl3, Cisplatin) in DMF were freshly prepared and diluted with complete DMEM containing 10% FCS to the desired concentration [final DMF concentration of 0.1% (v/v), final complex concentration of 20 μM]. The medium in the cell culture flasks was replaced with 3 mL of fresh cell culture medium containing the compounds, and the flasks were incubated under a humidified atmosphere at 37 °C for 3 min, 0.5, 1, 2, 4, and 8 h. Cell pellets were prepared by removing the medium, washing two times with phosphate-buffered saline (PBS), and detaching the cells with Accutase (GE Healthcare, BioSciences, Chicago, IL, USA). Subsequently, cells were pelleted by centrifugation (4 °C, 380g, 3 min). […]

TSA-201 cells = experiment: MTT assay of metabolic activity, noncancerous TSA-201; format: cell-based, human; conditions: 72 h; for IC50: MTT, read-out: IC50 TSA-210
Method: as §1, §2, §3

Water solubility = format: physicochemical

Molecule: C=CCOC(=O)/C=C/c1ccc(C(=C(CC)c2ccccc2)c2ccc(O)cc2)cc1 (mixture of isomers) [GW7604-Prop, Prop-2-en-1-yl (E)-3-(4-((E/Z)-1-(4-hydroxyphenyl)-2-phenylbut-1-en-1-yl)phenyl) Acrylate]
- IC50 (MCF-7 cells [1]; Homo sapiens, MCF7): 20 to 30 µM

Molecule: N.N.[Cl][Pt][Cl] [Cisplatin, cis-diamminedichloridoplatinum(II), reference compound]
- comet tails (DNA cross-links) (MCF-7 cells [2]): visible as comet tails
- accumulation in SKBr3 relative to MCF-7 cells (SKBr3 cells [3]; 20 μM): 15 fold
- intracellular platinum amount (SKBr3 cells [3]; SKBr3, 20 μM): 995 pmol/mg
- platinum content in the nuclei (nuclei of SKBr3 cells): 652 pmol/mg
- platinum content in the nuclei (nuclei of MCF-7 cells): 172 pmol/mg
- reduction of metabolic activity (SKBr3 cells [4]; SKBr3, 20 μM): 88%
- IC50 (MCF-7 cells [1]): 15 µM
- intracellular platinum amount (MCF-7 cells [5]): 319 pmol/mg

Molecule: Potassium trichlorido[η^2-(but-3-en-1-yl (E)-3-(4-((E/Z)-1-(4-hydroxyphenyl)-2-phenylbut-1-en-1-yl)phenyl)acrylate)]platinate(II) [GW7604-But-PtCl3]
- IC50 (SKBr3 cells [4]): > 30 µM
- IC50 (MCF-7 cells [1]): 20.4 µM
- IC50 (TSA-201 cells): > 30 µM
- decrease of cell viability (TSA-201 cells; TSA-201, 30 μM): about 20%

Molecule: Potassium trichlorido[η^2-(hex-5-en-1-yl (E)-3-(4-((E/Z)-1-(4-hydroxyphenyl)-2-phenylbut-1-en-1-yl)phenyl)acrylate)]platinate(II) [GW7604-Hex-PtCl3]
- IC50 (SKBr3 cells [4]): > 30 µM
- IC50 (MCF-7 cells [1]): 20.5 µM
- IC50 (TSA-201 cells): > 30 µM

Molecule: Potassium trichlorido[η^2-(prop-2-en-1-yl (E)-3-(4-((E/Z)-1-(4-hydroxyphenyl)-2-phenylbut-1-en-1-yl)phenyl)acrylate)]platinate(II) [GW7604-Prop-PtCl3]
- water solubility (Water solubility): does not have sufficient water solubility
